Values after ≈ are worked out from the molar mass of the structure shown.
What was measured:
[1] = tested on: alfalfa weevil (Hypera postica); assay: Field trials, control of alfalfa weevil; format: in vivo
Experimental: (§1) Field trials were conducted in Louisiana, North Carolina, Texas, Kentucky, Tennessee, and Illinois to evaluate the control of alfalfa weevil (Hypera postica). Small plot trials were used in a randomized block design with four replications per treatment. Applications were made with CO2 backpack sprayers. Results were obtained at 3, 7, and 14 days after treatment (DAT) and were converted to percent control based on the untreated check.

target crop insects = assay: Field trials, overall statement; format: in vivo; conditions: at half the rate of cypermethrin, or even lower
Source text: Field trials conducted on cotton in Louisiana, Mississippi, Alabama, and Arizona consisted of a randomized complete block design of four replications per treatment. Plots were a minimum of 0.2 acres, and all applications were by commercial ground equipment with a minimum of 10 gallons total spray solution per acre. The cypermethrin isomer content (weight %) of the several sigma-cypermethrin technical products used in the field trials were as follows:
Analysis of the data was based on a seasonal average of multiple evaluations taken over a four to six week period (3-4 applications) in trials for control of Heliothis sp.
Field trials conducted on lettuce in California for evaluation of the control of cabbage looper consisted of a randomized complete block design of four replications per treatment. Applications were made to small plots with CO2 backpack sprayer using a minimum of 10 gallons per acre. Results were converted to percent control based on untreated check plots.
as §1, with “Results were obtained at 3, 7, and 14 days after treatment (DAT) and were converted to percent control based on the untreated check.” left out

certain insect species = assay: Insecticidal activity, overall statement; format: in vivo
Experimental: (§2) Cypermethrin and sigma-cypermethrin were tested by foliar application at various concentrations in aqueous solutions containing 9.75% acetone and 0.25% octylphenoxypolyethoxyethanol. Insect species utilized included the cabbage looper (Trichoplusia ni), southern armyworm (Spodoptera eridania), Mexican bean beetle (Epilachna varivestis), tobacco budworm (Heliothis virescens), and corn earworm (Heliothis zea).
(§3) For all insects, pinto beans (Phaseolus vulgaris) plants were treated with the test solutions. The test solutions were applied with a sprayer to the upper and lower surfaces of the plant leaves to runoff. The plants were then allowed to dry and were severed at the base of the stem before being placed in cups. Ten second instar individuals of the appropriate insect species, except the tobacco budworm and corn earworm, were placed in each cup and the cup covered. Tests with the tobacco budworm and corn earworm used four replicates with each replicate containing five second instar insects. In all tests, mortality was read 48 hours later. The sigma-cypermethrin used in the foliar evaluations was the product of Example 2.

[2] = tested on: sheepshead minnow (Cyprinodon variagatus); assay: Ninety-six-hour flow-through acute toxicity, sheepshead minnow; format: in vivo
Experimental: (§4) Ninety-six-hour flow-through acute toxicity studies of both cypermethrin and sigma-cypermethrin were conducted in the rainbow trout (Oncorhynchus mykiss) and in the sheepshead minnow (Cyprinodon variagatus) to determine the median-lethal-concentration (LC50) resulting from continuous exposure. For the rainbow trout the exposure medium was well water; for the sheepshead minnow, filtered seawater. Each group of 20 fish (10 per replicate aquarium) was exposed either to one of five concentrations of pyrethroid delivered in a diluter system in dimethylformamide (DMF), to 30 μL/L DMF in the exposure medium (solvent control), or to the exposure medium alone (control). Observations for mortality, morbidity, and other overt signs of toxicity were determined at prescribed intervals. Concentrations of the test materials were measured at the beginning and end of the exposure using a validated HPLC method. The cypermethrin isomer content (weight %) of the sigma-cypermethrin technical product used in this study was total isomers--88.2%, S-isomers--82%, cis/trans ratio--53/47.

[3] = as above; format: in vivo, Cyprinodon variagatus; conditions: 96 h flow-through, filtered seawater
Experimental: as §4

rats = assay: Multigeneration study; format: in vivo
Experimental: Multigeneration studies were conducted in compliance with EPA guideline 83-4 and provide information on reproductive parameters as well as neonatal morbidity and mortality for multiple generations. Wistar rats were fed diets, throughout the study, containing 0, 50, 150, and 750 ppm of cypermethrin (the top dose level was 1000 ppm for the first 12 weeks, but was lowered to 750 ppm for the remainder of the study owing to toxicity). Similarly, Sprague-Dawley rats were fed diets containing 0, 7.5, 25, 100, 375, and 750 ppm of sigma-cypermethrin. (Again, the rates are lower for sigma-cypermethrin, because it was expected to be more toxic.) The cypermethrin isomer content (weight %) of the sigma-cypermethrin technical product used in this study was total isomers--89.1%, S-isomers--82%, cis/trans ratio--51/49. […] Body weights and food consumption were recorded at regular intervals.
The breeding of parental and subsequent generations in each study was initiated with 30 females. In both studies appropriate dietary concentrations of test material were provided during cohabitation. Exposure of the parental males of each generation continued until a scheduled sacrifice following completion of the cohabitation periods, while exposure of parental females continued through to weaning of pups. Pups were weaned at postnatal day 28 in both studies.

[4] = tested on: Mexican bean beetle (Epilachna varivestis); assay: Foliar evaluation, Mexican bean beetle (MBB); format: in vivo; conditions: for LC50: Epilachna varivestis, foliar, pinto beans, mortality at 48 hours
Experimental: as §2, §3

[5] = tested on: tobacco budworm (Heliothis virescens); assay: Foliar evaluation, tobacco budworm (TBW); format: in vivo; conditions: for LC50: Heliothis virescens, foliar, pinto beans, mortality at 48 hours
Experimental: as §2, §3

[6] = tested on: rainbow trout (Oncorhynchus mykiss); assay: Ninety-six-hour flow-through acute toxicity, rainbow trout; format: in vivo
Experimental: as §4

CC1(C)C(C=C(Cl)Cl)C1C(=O)O[C@H](C#N)c1cccc(Oc2ccccc2)c1 (mixture of isomers) [sigma-cypermethrin, (S)(cyano)(3-phenoxyphenyl)methyl cis/trans-3-(2,2-dichloroethenyl)-2,2-dimethylcyclopropanecarboxylate]
% Alfalfa Weevil Control ([1]; Year 1, 0.022 lb ai/A, 3 DAT, average of 4 trials): 96% | % Alfalfa Weevil Control ([1]; Year 1, 0.022 lb ai/A, 7 DAT, average of 4 trials): 94% | % Alfalfa Weevil Control ([1]; Year 1, 0.022 lb ai/A, 14 DAT, average of 4 trials): 96% | % Alfalfa Weevil Control ([1]; Year 2, 0.01 lb ai/A, 3 DAT, average of 6 trials): 93% | % Alfalfa Weevil Control ([1]; Year 2, 0.01 lb ai/A, 7 DAT, average of 6 trials): 93% | % Alfalfa Weevil Control ([1]; Year 2, 0.01 lb ai/A, 14 DAT, average of 6 trials): 85% | % Alfalfa Weevil Control ([1]; Year 2, 0.015 lb ai/A, 3 DAT, average of 6 trials): 94% | % Alfalfa Weevil Control ([1]; Year 2, 0.015 lb ai/A, 7 DAT, average of 6 trials): 97% | % Alfalfa Weevil Control ([1]; Year 2, 0.015 lb ai/A, 14 DAT, average of 6 trials): 94% | % Alfalfa Weevil Control ([1]; Year 2, 0.022 lb ai/A, 3 DAT, average of 6 trials): 94% | % Alfalfa Weevil Control ([1]; Year 2, 0.022 lb ai/A, 7 DAT, average of 6 trials): 96% | % Alfalfa Weevil Control ([1]; Year 2, 0.022 lb ai/A, 14 DAT, average of 6 trials): 94% | field results relative to cypermethrin (target crop insects): generally gave results essentially equivalent to that obtained with cypermethrin applied at the recommended rate | effectiveness relative to cypermethrin (certain insect species): twice as effective as cypermethrin | ratio of the cypermethrin LC50 to the sigma-cypermethrin LC50 [2]: 1.64 | LC50 at 96 h [3]: 0.00237 µg/mL | mortality of F1 generation litters (rats; 750 ppm in diet, 28-day lactation and first week postweaning): excessive mortality | NOEL relative to that of cypermethrin (rats; multigeneration): twice that of cypermethrin | amount required to show an effect on rats relative to that expected from effect on insects (rats; multigeneration): four times | LC50 [4]: 0.3 µg/mL | effectiveness relative to cypermethrin ([4]; the only Coleoptera tested, laboratory): four times as effective | Relative Potency ([4]; vs cypermethrin, MBB): 4.0 | LC50 [5]: 4.4 µg/mL | Relative Potency ([5]; vs cypermethrin, TBW): 1.7 | ratio of the cypermethrin LC50 to the sigma-cypermethrin LC50 [6]: 1.3

CC1(C)C(C=C(Cl)Cl)C1C(=O)OC(C#N)c1cccc(Oc2ccccc2)c1 (stereo not drawn) [cypermethrin, (cyano)(3-phenoxyphenyl)methyl 3-(2,2-dichloroethenyl)-2,2-dimethylcyclopropanecarboxylate, reference compound]
% Alfalfa Weevil Control ([1]; Year 2, 0.04 lb ai/A, 3 DAT, average of 6 trials): 94% | % Alfalfa Weevil Control ([1]; Year 2, 0.04 lb ai/A, 7 DAT, average of 6 trials): 96% | % Alfalfa Weevil Control ([1]; Year 2, 0.04 lb ai/A, 14 DAT, average of 6 trials): 90% | LC50 at 96 h [3]: 0.00388 µg/mL (≈ 0.00932 µM) | toxicity at top dose level (rats; 1000 ppm in diet, first 12 weeks, lowered to 750 ppm): toxicity | NOEL (rats; in diet, multiple generations): 50 ppm | LC50 [4]: 1.2 µg/mL (≈ 2.88 µM) | LC50 [5]: 7.3 µg/mL (≈ 17.5 µM)

Source: patent US5164411A, “Pyrethroid compositions” (priority 1991, dated 1992)
